From article PMC7901650, “Garcinoic Acid Is a Natural and Selective Agonist of Pregnane X Receptor” (Journal of Medicinal Chemistry, 2020)

Legend:
[1] = tested on: HT29; assay: PXR and CYP3A4 protein expression in HT29 cells; assay type: cell-based; conditions: HT29, 24 h, 1 to 25 μM
Description: HepG2 (human hepatoma cell line; ATCC HB-8065, Manassas, VA) and HepaRG (HPRGC10, Thermo Fisher Scientific) cells were maintained in culture as previously described.[47] Experiments were performed between passages 2 and 10. Cell viability, clonogenic activity, and apoptotic cell death were assessed as previously described (see Figure S2).[58],[59] HT29 human colorectal adenocarcinoma cells (ATCC HTB-38) and its mucous-secreting HT29-MTX subclone (Sigma-Aldrich) were used as intestinal cell models. HT29 cells were cultured in RPMI (Invitrogen; Life Technologies) containing 10% FBS (v/v) and 1% (v/v) L-glutamine. HT29-MTX cells (from Sigma-Aldrich) were cultured in DMEM supplemented with 2 mM glutamine, 1% nonessential amino acids, and 10% FBS. […]
Cells were harvested and lysed in ice-cold cell lysis buffer (Cell Signaling Technology) and 20 μL/mL protease inhibitor cocktail (Roche). […] After incubation in ice for 1 h and centrifugation (12 000 rpm for 20 min at 4 °C), the supernatant was recovered, and total proteins were quantified by the BCA assay kit (Pierce, Thermo Fisher Scientific). […] The band intensity was analyzed using Gel Pro analyzer Software. […]
PXR and CYP3A4 protein was assessed by immunoblot (20 µg total protein loading) in HT29 cells (from ATCC) were cultured in RPMI (Invitrogen; Life Technologies) containing 10% FBS ( v/v) and 1% ( v/v) L-glutamine. […]

[2] = target: T1, FXR (Homo sapiens, UniProt Q96RI1); assay: AlphaScreen nuclear receptor panel, FXR; assay type: biochemical
T1 construct: GST-LBD
T1 sequence (Q96RI1 262-486 limits assumed): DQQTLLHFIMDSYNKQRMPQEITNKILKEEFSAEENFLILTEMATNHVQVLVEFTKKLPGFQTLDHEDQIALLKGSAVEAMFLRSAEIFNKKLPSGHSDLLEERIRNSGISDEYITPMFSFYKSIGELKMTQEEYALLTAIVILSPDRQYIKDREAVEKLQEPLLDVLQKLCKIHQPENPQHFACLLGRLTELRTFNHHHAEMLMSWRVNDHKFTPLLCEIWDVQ
From the text: (§1) Ligand binding activity of GA (1) was explored via AlphaScreen technology over a panel of NRs that, along with hPXR (Figure 1A), included major human endocrine and metabolic receptors, such as the retinoid X receptor (RXR), constitutive androstane receptor (CAR), farnesoid X receptor (FXR), vitamin D receptor (VDR), liver X receptor (LXR) forms α and β, and the PPAR isoforms α, δ, and γ (see Figure S1). GA (1) was compared to its analogue δ-tocotrienol (5), the vitamers 3 and 4, their short-chain metabolites (SCMs) α-CEHC (10) and γ-CEHC (11), and the LCMs 2 and 8 (Chart 1). The test was performed in the presence of reference standard agonists for the different NRs.
(§2) The activity of nuclear receptors was determined using AlphaScreen technology, a recruitment coactivator assay previously described.[56]
(§3) (A) The test was carried out at 10 μM compound final concentration. Ligand binding to nuclear receptors was expressed as luminescence units. […] Vehicle was assessed to obtain a measure of background signal (basal evaluation). […] In presence of the ligand, the nuclear receptor LBD undergoes conformational changes, binds to the coactivator and the chemical energy is transferred from donor to acceptor beads in order to produce a signal, i.e. luminescence; in this case the compounds behaves as agonist, changing the conformation of the receptor to recruit the coactivator. […]

[3] = target: T2, CAR (Homo sapiens, UniProt Q14994); assay: AlphaScreen nuclear receptor panel, CAR; assay type: biochemical
T2 construct: GST-LBD
T2 sequence (Q14994 109-352 limits assumed): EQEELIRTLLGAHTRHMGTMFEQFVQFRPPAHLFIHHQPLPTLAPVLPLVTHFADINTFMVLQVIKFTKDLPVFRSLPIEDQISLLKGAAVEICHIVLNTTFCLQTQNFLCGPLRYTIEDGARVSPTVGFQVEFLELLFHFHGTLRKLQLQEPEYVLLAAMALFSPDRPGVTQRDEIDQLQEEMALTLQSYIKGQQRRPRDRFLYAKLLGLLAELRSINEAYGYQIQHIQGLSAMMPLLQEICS
From the text: as §1, §2, §3

[4] = tested on: C57BL/6 wild-type male mice; assay: Acute toxicity in mice after single oral bolus; conditions: 100 mg single bolus by oral gavage, 24 h after the treatment
[5] = tested on: RAR; assay: AlphaScreen nuclear receptor panel, RAR; assay type: biochemical, human
From the text: as §1, §2, §3

## C/C(=C\CC/C(C)=C/CC[C@]1(C)CCc2cc(O)cc(C)c2O1)CC/C=C(\C)C(=O)O [GA (1), (2E,6E,10E)-13-[(2R)-6-hydroxy-2,8-dimethyl-chroman-2-yl]-2,6,10-trimethyltrideca-2,6,10-trienoic acid]
[1]
  PXR and CYP3A4 protein expression: increase
[2]
  Response on FXR: No response
[3]
  Effect on CAR (constitutive activation): partially inhibited
[4]
  Mortality: 100%
[5]
  Response on RAR: No response
